Columns and labels:
[1] = Merck Index; cited from earlier work
[2] = Dissolution of coumarin from PL75D/TP blend cap-coated shims in PBS; format: physicochemical; conditions: FIG. 19
Experimental: P[…] was dried at 70° C. at reduced pressure overnight. The dried pellets were compressed between two plates that were pre-heated to 230° C. and maintained for about 5 minutes. After the sample was cooled down to room temperature, it was placed in a vial filled with THF and stirred until dissolved (by visual observation). […] Coumarin was also dissolved in THF. The concentrations of all the solutions were about 1 wt-%. TL solution and coumarin solution were mixed at a weigh ratio of 1:1. This mixture is the base coating solution of a reservoir system. TP solution and P[…] solution were mixed at various weight ratios to make five different mixtures with the weight ratios of TP to P[…] being 100:0, 75:25, 50:50, 25:75, and 0:100. These solutions are referred to herein as cap coating solutions of the reservoir system. Dissolution samples were prepared with stainless steel (316L) shims (12.1×38.1 mm^2) that were cleaned by rinsing with THF. The cleaned shims were coated with the […] solution. The coated shims were allowed to dry overnight under nitrogen. […] This thermal treatment led to formation of a primer on the surface of the shims that promoted their adhesion with polymer/active agent layers. […] The concentration of coumarin in all these solutions was measured with a liquid chromatography (HP 1090) that was equipped with a UV detector. […]

Release rates from the PL75D/TP blends ([2]; cap coat blends): between that from the two pure polymers
Compound: O=c1ccc2ccccc2o1 [coumarin]
Volume of cold water that dissolves one gram [1]: 400 mL
Release rate, pure cap-coat polymers compared ([2]; 100% PL75D versus 100% TP cap coat): release much faster from a 100% PL75D coated shim than that from 100% TP coated shim
